According to PubChem BioAssay (NCI):
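Each compound was tested at five concentrations against cells in 96-well plates for 48 hours. TGI: concentration producing complete growth inhibition.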

What was measured:
Experiment in all cases: growth of human tumour cells (NCI), 48 h
NCI-H226 lung = test system: NCI-H226 lung
HCT-15 colon = test system: HCT-15 colon
MOLT-4 leukemia = test system: MOLT-4 leukemia
MCF7 breast = test system: MCF7 breast
SF-539 CNS = test system: SF-539 CNS
SR leukemia = test system: SR leukemia
OVCAR-8 ovarian = test system: OVCAR-8 ovarian
NCI-H522 lung = test system: NCI-H522 lung
PC-3 prostate = test system: PC-3 prostate
SK-MEL-28 melanoma = test system: SK-MEL-28 melanoma
KM12 colon = test system: KM12 colon
UACC-257 melanoma = test system: UACC-257 melanoma
NCI/ADR-RES ovarian = test system: NCI/ADR-RES ovarian
TK-10 renal = test system: TK-10 renal
OVCAR-3 ovarian = test system: OVCAR-3 ovarian
HCC-2998 colon = test system: HCC-2998 colon
BT-549 breast = test system: BT-549 breast
HOP-62 NSCLC = test system: HOP-62 NSCLC
M14 melanoma = test system: M14 melanoma
HOP-92 NSCLC = test system: HOP-92 NSCLC
U251 CNS = test system: U251 CNS
NCI-H460 lung = test system: NCI-H460 lung
CAKI-1 renal = test system: CAKI-1 renal
RXF 393 renal = test system: RXF 393 renal
HCT-116 colon = test system: HCT-116 colon
LOX IMVI melanoma = test system: LOX IMVI melanoma
ACHN renal = test system: ACHN renal
COLO 205 colon = test system: COLO 205 colon
RPMI-8226 leukemia = test system: RPMI-8226 leukemia
MDA-MB-435 = test system: MDA-MB-435
SNB-75 CNS = test system: SNB-75 CNS
K-562 leukemia = test system: K-562 leukemia
UO-31 renal = test system: UO-31 renal
CCRF-CEM leukemia = test system: CCRF-CEM leukemia
SN12C renal = test system: SN12C renal
SW-620 colon = test system: SW-620 colon
SNB-19 CNS = test system: SNB-19 CNS
SF-295 CNS = test system: SF-295 CNS
T-47D breast = test system: T-47D breast
NCI-H23 lung = test system: NCI-H23 lung
A498 renal = test system: A498 renal
DU-145 prostate = test system: DU-145 prostate
HT29 colon = test system: HT29 colon
SF-268 CNS = test system: SF-268 CNS
EKVX NSCLC = test system: EKVX NSCLC
OVCAR-4 ovarian = test system: OVCAR-4 ovarian
786-0 renal = test system: 786-0 renal
SK-OV-3 ovarian = test system: SK-OV-3 ovarian
SK-MEL-5 melanoma = test system: SK-MEL-5 melanoma
MALME-3M melanoma = test system: MALME-3M melanoma
A549 NSCLC = test system: A549 NSCLC
IGROV1 ovarian = test system: IGROV1 ovarian
UACC-62 melanoma = test system: UACC-62 melanoma
MDA-MB-231 breast = test system: MDA-MB-231 breast
OVCAR-5 ovarian = test system: OVCAR-5 ovarian
MDA-N = test system: MDA-N

Measured: TGI

CC(C)Sc1nncc(/C(N)=N/O)n1
> 100 µM: all assays above
